Entries after “also recorded” stand apart in the source; their conditions may differ.
What was measured:
spleen cells = test: β-gal-specific T cell proliferation of spleen cells from immunized mice ([3H]-thymidine uptake); format: in vivo, BALB/c (H-2d) mice; conditions: spleen cells re-stimulated in vitro for 4 days with soluble β-gal; FIG. 6
Description: FIG. 6: β-gal-specific T cell proliferation responses of spleen cells from immunized mice. The cells were re-stimulated in vitro over 4 days with different concentrations of soluble β-gal. The results are depicted as ratios between the values (means of triple determinations) from stimulated and unstimulated samples (stimulation index).
The spleens were removed and taken together for analyzing the cell immune responses. The cells were propagated in RPMI 1640, additionally containing 10% calf serum, 100 U of penicillin/ml, 15 μg of streptomycin/ml, 5×10^−5 M 2-mercaptoethanol and 1 mM L-glutamine (GIBCO BRL, Karlsruhe, Germany), and stored at 37° C. in a moist atmosphere containing 5% CO2. […] These cells were then harvested on filter paper (Filtermat A; Wallac, Freiburg, Germany) using a cell harvester (Inotech, Wohlen, Switzerland) and the quantity of [^3H] thymidine taken up into the DNA of proliferating cells was determined using a scintillation counter (Wallac 1450, Micro-Trilux). The results were recorded as the ratios between the values (mean values, determined in triplicate) of stimulated and unstimulated samples (stimulation index).

β-gal-specific IgA = β-gal-specific IgA in lung and vaginal washings of intranasally immunized mice; format: in vivo, BALB/c (H-2d) mice; conditions: intranasal immunization with β-gal plus adjuvant
Method: (§1) 6-8-week-old female BALB/c (H-2d) mice (Harlan Winkelmann GmbH, Borchen, Germany) were used for the experiments. Groups of in each case 5 mice were administered 50 μg of β-galactosidase (β-gal) (Boehringer, Mannheim, Germany), either on its own or together with 0.5 μg of synthetic R-MALP-2, S-MALP-2 or BPP-Cys-PEG, as adjuvant, by the nasal route (25 μl) on days 1, 14 and 21. Serum samples were withdrawn on day 31 and stored at −20° C. until the β-gal-specific antibodies were determined. Nunc-Immuno MaxiSorp test plates containing 96 wells (Nunc, Roskilde, Denmark) were coated with 100 μl of β-gal (Boehringer, Mannheim, Germany), containing 5 μg/ml in 0.05 mol carbonate buffer (pH 8.2), per well. Serial double dilutions of the sera or washings in PBS containing 1% BSA and 0.05% Tween 20 were added (100 μl/well) and the plates were incubated at 37° C. for 2 hours. […]
Vaginal and lung washings were obtained by rinsing the organs with […] PBS which contained 50 mM EDTA, 0.1% BSA and 10 mM PMSF. […] In order to investigate the capacity of R-MALP-2, S-MALP-2 and BPP-Cys-PEG for stimulating effective humoral immune responses, the serum titers of β-gal-specific antibodies were determined in the inoculated mice.

[1] = tested on: mouse peritoneal macrophages; test: Nitrogen monoxide release assay (macrophage activation test); format: cell-based, C3H/HeJ mice; conditions: FIG. 1
Description: In principle, the activation of macrophages and monocytes can be measured by a large number of parameters, for example by means of the release of cytokines, chemokines or arachidonic acid metabolites in cultures of human monocytes or murine peritoneal macrophages. The test which is used here is based on the simultaneous stimulation of mouse peritoneal macrophages with interferon-γ and macrophage activator, e.g. BAP-Cys-PEG, so as to release nitrogen monoxide. (Reference: Muhlradt, P. F., and Frisch, M., 1994, “Purification and partial biochemical characterization of a Mycoplasma fermentans-derived substance that activates macrophages to release nitric oxide, tumor necrosis factor, and interleukin-6”, Infect. Immun. 62:3801-3807).
In brief, peritoneal macrophages from C3H/HeJ mice were used as the macrophage source. They were cultured in 96-well microtiter plates and stimulated simultaneously with rIFN-γ and a serial dilution of macrophage activator. Insofar as necessary, the macrophage activators were dissolved in 25 mM octylglucoside in the first dilution step and then diluted further with medium. After an incubating time of 45-48 hours, the nitrate was reduced with nitrate reductase and the starting substance nitrogen monoxide was determined, as the sum of nitrate and nitrite, using Griess' reagent. […]

[2] = tested on: diabetic mice (C57BKLS/Bom-db); test: Wound healing in diabetic mice; format: in vivo; conditions: 3×200 kU per animal on days 0, 2 and 5, in methylcellulose and 5% mouse serum; versus carrier control; FIG. 2
Description: As in the case of diabetic patients, wound healing is also disturbed in diabetic mice and proceeds more slowly than in wild-type mice. The diabetic mouse is therefore an established animal model for wound healing.
An area of approx. 4×4 cm in size was shaved on the backs of 20 diabetic mice ([…] C57BKLS/Bom-db) and this area was depilated with Veet two days later, after which the cream was carefully removed. After a further two days, the depilated backs of the mice were disinfected with Braunol. After anaesthesia had been initiated with isoflurane/air, an additional local anaesthesia was performed by means of the i.c. injection of 2% xylocaine directly into the site envisaged for the excision, and the skin was defatted with trichloroethylene. After that, scissors were used to cut out a circular skin wound of 1.3 cm in diameter in each of the mice. The wounds were closed with a transparent plaster (Hydrofilm, F. Hartmann) and dressing adhesive. An additional, larger plaster, having an aperture corresponding to the wound, making possible continued observation of the wound, was adhered on top of the first plaster.
3×200 kUnits of BPP-Cys-PEG, in methylcellulose and 5% mouse serum (as carrier), were administered, per animal, through the transparent plaster on days 0, 2 and 5.
Control mice were only given the carrier mixture. […]

[3] = tested on: β-galactosidase-specific antibodies; test: Serum β-gal-specific IgG (ELISA) after intranasal immunization with β-gal plus adjuvant; format: in vivo, BALB/c (H-2d) mice
Method: FIG. 3: Humoral responses which are stimulated after inoculating with MALP-2 derivatives and BPP-Cys-PEG, as mucosal adjuvants, at a dose of 0.05 μg per animal per immunization. The mice were immunized intranasally, on days 0, 7 and 14, with β-galactosidase (50 μg/dose) mixed with the above derivatives. On day 31 after the first immunization, serum samples were withdrawn and the concentrations of the β-galactosidase-specific antibodies were determined by means of ELISA. The results are depicted as end point titers.
as §1

With “bispalmitoyloxy-propylcysteine-PEG [BPP-Cys-PEG]” the “β-gal-specific T cell proliferation response (stimulation index)” value (spleen cells) was “effective proliferation response; also recorded: strongest T cell proliferation response”, the “β-gal-specific IgA in lung washings” value (β-gal-specific IgA; FIG. 4) was “significant increase in antigen-specific IgA antibodies” and the “β-gal-specific IgA in vaginal washings” value (β-gal-specific IgA; FIG. 5) was “significant concentrations of β-gal-specific IgA”. The “concentration achieving the same degree of macrophage activation, relative to TPP-Cys-PEG” value ([1]; comparison with TPP-Cys-PEG (PAM3-Cys-PEG)) was “approx. forty times lower”, the “potential for activating macrophages (nitrogen monoxide production), compared with PAM3-Cys-PEG” value ([1]; peritoneal macrophages co-stimulated with rIFN-γ, 45-48 hours) was “markedly higher potential for activating macrophages” and the wound healing [2] was “accelerated the wound healing significantly”. For the same substance, the “antigen-specific (β-gal) serum IgG titers” value ([3]; intranasal, 50 μg β-gal with 0.5 μg adjuvant, serum on day 31, FIG. 3) was “rise more rapidly than those obtained using R-MALP-2” and the “effectiveness as a mucosal adjuvant compared with R-MALP-2 (overall conclusion)” value ([3]; summary of humoral and cellular responses, systemic and mucosal) was “at least as effective as, or even more effective than, R-MALP-2”.

— patent US7316996B2, “Bisacyloxypropylcysteine conjugates and the use thereof” (GBF Gesellschaft fur Biotechnologische Forschung mbH, priority 2002, dated 2008)
